Results from patent publication US20200129561A1, “DELIVERY OF AUTOLOGOUS CELLS COMPRISING MATRIX METALLOPROTEINASE FOR TREATMENT OF SCLERODERMA” (Intrexon Corporation, priority 2017, published 2020).

Experiment: Nonclinical studies of veledimex control of target protein expression: tissue level of veledimex
Format: in vivo
Settings: oral administration; other target proteins
Excerpt: MMP-1 expression levels were undetected after 10 days post-injection.

levels of veledimex in the tissue at which maximal expression of target protein can be achieved: approximately 250 ng/mL
SMILES: CCC[C@@H](N(NC(=O)c1cccc(OC)c1CC)C(=O)c1cc(C)cc(C)c1)C(C)(C)C [veledimex, 3,5-dimethyl-benzoic acid (R)—N-(1-tert-butyl-butyl)-N′-(2-ethyl-3-methoxy-benzoyl)-hydrazide]
